# Counter-ions that a name gives are not always drawn.
# Tests used:
# Leishmania amazonensis [1] = test: Antileishmanial activity against intracellular Leishmania amazonensis infected in mouse peritoneal macrophages; type: functional, organism-based
# Mus musculus = test: Toxicity in Leishmania amazonensis infected mouse visceral leishmaniasis model at > 1 mg/kg/day, ip; type: organism-based; design: route intraperitoneal; conditions: in vivo
# [2] = Selectivity index, ratio of IC50 for african green monkey Vero cells to IC50 for bloodstream form of Trypanosoma brucei brucei; type: toxicity, cell-based; conditions: read-out: Ratio IC50
# Plasmodium falciparum = test: Antimalarial activity against Plasmodium falciparum by flow cytometry; type: functional, organism-based
# Leishmania amazonensis [3] = test: Antileishmanial activity against Leishmania amazonensis infected in mouse visceral leishmaniasis model assessed as decrease in parasitemia level in liver at 1 mg/kg/day, ip administered 5 times; type: functional; design: scale not given: the % may be the effect or the level left; conditions: route intraperitoneal
# Vero = test: Cytotoxicity against african green monkey Vero cells; type: cell-based; conditions: Chlorocebus sabaeus
# [4] = test system: Trypanosoma brucei brucei; test: Antitrypanosomal activity against bloodstream form of Trypanosoma brucei brucei; type: functional, organism-based
# Leishmania amazonensis [5] = test: Antileishmanial activity against Leishmania amazonensis infected in mouse visceral leishmaniasis model assessed as decrease in parasitemia level in liver at 10 mg/kg/day, ip administered 5 times; type: functional; design: scale not given: the % may be the effect or the level left; conditions: route intraperitoneal
SMILES,IC50 (Leishmania amazonensis [1]) [µM],IC50 (Plasmodium falciparum) [µM],IC50 [4] [µM],also measured
CCC1(CC)c2c(ccc(OC)c2OC)C(=O)c2c3cc4c(cc3cc[n+]21)OCO4.[Cl-],0.18,0.036,0.0091,Activity (Mus musculus): Toxic; selectivity ratio [2]: 10000; Activity (Leishmania amazonensis [3]): 47%; IC50 (Vero): 91 µM
C[C@@H]1[C@H](O)[C@@H](C)/C=C/C=C/C=C/C=C/C=C/C=C/C=C/[C@H](O[C@@H]2O[C@H](C)[C@@H](O)[C@H](N)[C@@H]2O)C[C@@H]2O[C@](O)(C[C@@H](O)C[C@@H](O)[C@H](O)CC[C@@H](O)C[C@@H](O)CC(=O)O[C@H]1C)C[C@H](O)[C@H]2C(=O)O [AMPHOTERICIN B],0.12,–,–,–
COc1ccc2cc3[n+](cc2c1OC)CCc1cc2c(cc1-3)OCO2 [BERBERINE SULFATE],17,0.8,1.1,–
CCCCCCCCCCCCCCCCOP(=O)([O-])OCC[N+](C)(C)C [MILTEFOSINE],–,–,–,Activity (Leishmania amazonensis [5]): 98%
Cc1ccc(C(=O)Nc2ccc(S(=O)(=O)O)c3cc(S(=O)(=O)O)cc(S(=O)(=O)O)c23)cc1NC(=O)c1cccc(NC(=O)Nc2cccc(C(=O)Nc3cc(C(=O)Nc4ccc(S(=O)(=O)O)c5cc(S(=O)(=O)O)cc(S(=O)(=O)O)c45)ccc3C)c2)c1 [SURAMIN],–,–,0.25,–
